# Reference: patent US5571820A, “Heterocyclic compound” (Taisho Pharmaceutical Co., Ltd., priority 1992, dated 1996)
# Columns and labels:
# serotonin 4 receptor = molecular target: T1, serotonin 4 receptor (Cavia porcellus, UniProt O70528); assay: Serotonin 4 receptor stimulating activity: twitch responses of electrically stimulated ileum longitudinal muscle strips; assay type: cell-based, guinea pig (Hartley)
# T1 construct: from tissue; host or cells: ileum longitudinal muscle strips of Hartley guinea pig
# T1 sequence (O70528 whole entry): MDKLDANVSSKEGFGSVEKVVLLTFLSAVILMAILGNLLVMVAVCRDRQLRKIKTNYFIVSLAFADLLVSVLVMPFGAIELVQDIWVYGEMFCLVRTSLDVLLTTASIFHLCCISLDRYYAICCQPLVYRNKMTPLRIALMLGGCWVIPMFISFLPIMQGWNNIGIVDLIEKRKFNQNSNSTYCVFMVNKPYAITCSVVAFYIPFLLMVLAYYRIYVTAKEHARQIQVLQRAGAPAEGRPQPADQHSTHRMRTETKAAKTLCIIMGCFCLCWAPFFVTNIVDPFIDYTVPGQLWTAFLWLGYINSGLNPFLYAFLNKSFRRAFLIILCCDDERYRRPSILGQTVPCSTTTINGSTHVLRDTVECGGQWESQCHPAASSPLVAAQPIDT
# Source text: Experiment 1. Serotonin 4 Receptor Stimulating Activity Compounds Tested
# Twitch responses were examined in longitudinal muscle strips of guinea pig by a modification of the method described in The Journal of Pharmacology and Experimental Therapeutics, 252, 1378, 1990.
# From Hartley guinea pigs, a section of ileum 25 cm in length and proximal to the ileocecal junction was removed. The longitudinal muscle strips obtained from two segments of ileum about 4 cm each in length were used for this experiment. The longitudinal muscle strips were suspended in Krebs' solution at 32° to 34° C. and bubbled with 95% O2 and 5% CO2 under a load of about 0.8 g. Twitch responses were recorded under electrical stimulation of 0.2 Hz, 1 msec pulse duration, using force displacement transducers. The longitudinal muscle strips, stimulated at supramaximal voltage, were allowed to equilibrate for about an hour. […] The test was carried out by exposing the strips to cumulative additions of agonist at least at 45-minute intervals.
# gastric motility = assay: Activity on gastric motility in rat (balloon in stomach, conscious); assay type: in vivo, male Wistar rats; settings: for Contraction frequency (% of value prior to administration) / Motility index (% of value prior to administration): 1 mg/kg i.p.
# Description: Experiment 2. Activity on Gastric Motility in Rat Male Wistar rats weighing 250 to 350 g were fasted for 18 hours and then provided for experiment. The abdominal cavity was opened under ether anesthesia and a rubber balloon was inserted into the stomach via the forestomach. A cannula for administering a drug was put in the peritoneal cavity. After recovery from the anesthesia, the balloon was connected to low pressure transducers to record gastric motility in the conscious state. The compound of the present invention was suspended in physiological saline and the suspension was intraperitoneally administered. Contraction frequency and motility index are shown in terms of a proportion (%) of a mean value calculated for 15 minutes to a value prior to administration (0 minute). The value for 0 minute was made a mean value for 30 minutes prior to the administration.
# [1] = system: gastrointestinal tract motor action; assay: Activity on gastrointestinal motor in dogs (strain gauge force transducers, conscious); assay type: in vivo, Beagle dogs of both sexes; settings: for Motility index (% of value prior to administration): gastric motor action after feeding
# Description: Experiment 3. Activity on Gastrointestinal Motor in Dogs The activity was determined by a modification of the method described in Gastroenterologia Japonica, 12, 275, 1977. Beagle dogs of both sexes weighing 9 to 15 kg were anesthetized with sodium pentobarbital and strain gauge force transducers were sutured on five (5) portions, i.e., for determining antral, duodenum, jejunal, ileal and colonal motor responses. A cannula for administering a drug was mounted persistently into the jugular vein. After recovery of the surgery, motor responses at those portions on the gastrointestinal tract in both during a fasting period and after feeding were determined in the conscious dogs. The compound of the present invention was administered by dissolving the compound in 5% lactate saline aqueous solution for intravenous injection and for oral administration by suspending the compound in 5% gum arabic aqueous solution. The motor index is shown in terms of a proportion (%) of a mean value calculated for 15 minutes to a value prior to administration (0 minute). The value for 0 minute was made a mean value for 30 minutes prior to the administration. Results
# intestinal transit = assay: Activity on intestinal transit in mice (carbon powder); assay type: in vivo, male ICR mice; settings: for Intestinal transit (%): moving rate calculated for control animal
# Description: Experiment 5. Activity on Intestinal Transit in Mice
# The activity was determined by a modification of the method described in YAKURI-TO-CHIRYO, 10, 195, 1982.
# Male ICR mice weighing 20 to 30 g were used which were deprived of food for 24 hours. A suspension containing 5% carbon powder gum arabic was orally administered to the animal in a dose of 1 ml 15 minutes after subcutaneous administration or 30 minutes after oral administration, of drugs. The intestinal tract was removed 20 minutes after. The entire length of the intestinal tract and the distance of the carbon powders moved were measured, and a moving rate was calculated for control animal.
# [2] = Mouse single administration (acute toxicity); assay type: in vivo; settings: single oral administration
# Source text: Toxicity of the compound represented by formula (1) which is the effective ingredient of the pharmaceutical composition of the present invention was examined in terms of toxicity by mouse single administration (acute toxicity).
# [3] = Toxicity on consecutive 14-day oral administration in rat; assay type: in vivo, male Wistar rats
# Description: Experiment 6. Toxicity on Consecutive 14-day Oral Administration in Rat
# Toxicity of consecutive oral administration was investigated by oral administration of male Wistar rats of 5 weeks age, weighing 124 to 140 g and seven rats forming one group, orally received the compound of the present invention for 14 consecutive days in a daily dose of 100 mg/kg or 250 mg/kg once a day. During the course of administration, general conditions were observed and the body weight was measured. At the time when the administration was completed, hematological inspection, hematochemical inspection, urinalysis, anatomical finding, organ weight measurement and pathohistological inspection were performed.
# [4] = 10 min after administration, N = 4
# [5] = 30 min after administration, N = 4
# [6] = 40 min after administration, N = 4
# [7] = 50 min after administration, N = 4
# [8] = 60 min after administration, N = 4
# [9] = 250 mg/kg daily, oral, 14 consecutive days
compound,measurement,setting,value
"CC(C)n1c(=O)c(C(=O)N[C@H]2C[C@H]3CC[C@@H](C2)N3C)cc2ccccc21 [Compound 1, endo-N-(8-methyl-8-azabicyclo[3.2.1]oct-3-yl)-1-isopropyl-2(1H)-quinolone-3-carboxamide]",EC50,serotonin 4 receptor,21.4 nM
same,"serotonin 4 receptor stimulating activity, comparison with Compounds 2 to 7","serotonin 4 receptor; in words, from Table 2",much more potent serotonin 4 receptor stimulating activity than any of the other compounds
same,Contraction frequency (% of value prior to administration),gastric motility; [4],182.3%
same,Motility index (% of value prior to administration),gastric motility; [4],169.3%
same,Motility index (% of value prior to administration),"gastric motility; 20 min after administration, N = 4",188.1%
same,Contraction frequency (% of value prior to administration),"gastric motility; 20 min after administration, N = 4, *: P < 0.05",243.5%
same,Contraction frequency (% of value prior to administration),gastric motility; [5],187.0%
same,Motility index (% of value prior to administration),gastric motility; [5],144.2%
same,Contraction frequency (% of value prior to administration),gastric motility; [6],134.7%
same,Motility index (% of value prior to administration),gastric motility; [6],83.3%
same,Contraction frequency (% of value prior to administration),gastric motility; [7],134.9%
same,Motility index (% of value prior to administration),gastric motility; [7],88.8%
same,Contraction frequency (% of value prior to administration),gastric motility; [8],141.6%
same,Motility index (% of value prior to administration),gastric motility; [8],108.8%
same,effect on gastric motility,"gastric motility; 1 mg/kg, i.p.",accelerated the gastric motility
same,Motility index (% of value prior to administration),"[1]; 0.3 mg/kg intravenous, 15 min, N = 3",371.4%
same,Motility index (% of value prior to administration),"[1]; 0.3 mg/kg intravenous, 30 min, N = 3",322.6%
same,Motility index (% of value prior to administration),"[1]; 0.3 mg/kg intravenous, 45 min, N = 3, *: P < 0.05",282.3%
same,Motility index (% of value prior to administration),"[1]; 0.3 mg/kg intravenous, 60 min, N = 3, *: P < 0.05",261.1%
same,Motility index (% of value prior to administration),"[1]; 0.3 mg/kg intravenous, 75 min, N = 3, **: P < 0.01",281.9%
same,Motility index (% of value prior to administration),"[1]; 0.3 mg/kg intravenous, 90 min, N = 3, *: P < 0.05",262.1%
same,Motility index (% of value prior to administration),"[1]; 0.3 mg/kg intravenous, 105 min, N = 3, *: P < 0.05",242.9%
same,Motility index (% of value prior to administration),"[1]; 0.3 mg/kg intravenous, 120 min, N = 3",195.2%
same,Motility index (% of value prior to administration),"[1]; 1 mg/kg oral, 15 min, N = 3",116.4%
same,Motility index (% of value prior to administration),"[1]; 1 mg/kg oral, 30 min, N = 3",193.5%
same,Motility index (% of value prior to administration),"[1]; 1 mg/kg oral, 45 min, N = 3, *: P < 0.05",191.4%
same,Motility index (% of value prior to administration),"[1]; 1 mg/kg oral, 60 min, N = 3, **: P < 0.01",206.9%
same,Motility index (% of value prior to administration),"[1]; 1 mg/kg oral, 75 min, N = 3, *: P < 0.05",202.2%
same,Motility index (% of value prior to administration),"[1]; 1 mg/kg oral, 90 min, N = 3, *: P < 0.05",192.5%
same,Motility index (% of value prior to administration),"[1]; 1 mg/kg oral, 105 min, N = 3, *: P < 0.05",207.3%
same,Motility index (% of value prior to administration),"[1]; 1 mg/kg oral, 120 min, N = 3",194.9%
same,Motility index (% of value prior to administration),"[1]; 1 mg/kg oral, 180 min, N = 3",195.8%
same,Motility index (% of value prior to administration),"[1]; 1 mg/kg oral, 210 min, N = 3",176.2%
same,Motility index (% of value prior to administration),"[1]; 1 mg/kg oral, 240 min, N = 3",182.8%
same,effect on the motor action of the gastrointestinal tract,"[1]; intravenous and oral, both during fasting period and after feeding",showed acceleration on the motor action of the gastrointestinal tract
same,effect on intestinal transit,intestinal transit; oral and subcutaneous,accelerated the intestinal transit
same,Intestinal transit (%),"intestinal transit; p.o. 1 mg/kg, 5 cases",100.6%
same,Intestinal transit (%),"intestinal transit; p.o. 3 mg/kg, 5 cases",121.4%
same,Intestinal transit (%),"intestinal transit; p.o. 10 mg/kg, 6 cases",120.4%
same,Intestinal transit (%),"intestinal transit; s.c. 1 mg/kg, 5 cases",116.6%
same,Intestinal transit (%),"intestinal transit; s.c. 3 mg/kg, 4 cases",117.8%
same,Intestinal transit (%),"intestinal transit; s.c. 10 mg/kg, 6 cases, **: P < 0.01",138.3%
same,minimum lethal dose,[2],more than 125 mg/kg
same,toxic change,"[3]; 100 mg/kg daily, oral, 14 consecutive days",no toxic change was noted
same,body weight,[3]; [9],prevention of body weight increase was noted
same,"secondary changes in organs (liver, thymus, adrenogenital organ, adrenal, etc.)",[3]; [9],"secondary changes accompanied by aggravation of general conditions were observed in the liver, thymus, adrenogenital organ, adrenal, etc."
same,overall toxicity,"[3]; 14-day oral, taking into account pharmacological activities",the toxicity is reasonably assumed to be weak
